# Results taken from patent publication US9981975B2, “Pyrrolotriazine compounds as tam inhibitors” (Incyte Corporation, priority 2016, dated 2018).
# Tests used:
# Format in all cases: biochemical
# [1] = molecular target: c-Mer (Homo sapiens (Human), UniProt Q12866); assay: TAM Enzymatic Assay (HTRF), Mer; conditions: 60 min, room temperature
# Outline: (§1)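 HTRF kinase assay in 50 mM HEPES pH 7.5, 10 mM MgCl2, 1 mM EGTA, 0.01% NP-40, 2 mM DTT; compound in DMSO pre-dispensed, enzyme added, reaction started with substrate, 60 min at room temperature in the dark.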
# [2] = molecular target: Tyro3 (Homo sapiens (Human), UniProt Q06418); assay: TAM Enzymatic Assay (HTRF), Tyro3; conditions: Tyro3, 60 min, room temperature
# Chain of Tyro3 (Q06418 41-890): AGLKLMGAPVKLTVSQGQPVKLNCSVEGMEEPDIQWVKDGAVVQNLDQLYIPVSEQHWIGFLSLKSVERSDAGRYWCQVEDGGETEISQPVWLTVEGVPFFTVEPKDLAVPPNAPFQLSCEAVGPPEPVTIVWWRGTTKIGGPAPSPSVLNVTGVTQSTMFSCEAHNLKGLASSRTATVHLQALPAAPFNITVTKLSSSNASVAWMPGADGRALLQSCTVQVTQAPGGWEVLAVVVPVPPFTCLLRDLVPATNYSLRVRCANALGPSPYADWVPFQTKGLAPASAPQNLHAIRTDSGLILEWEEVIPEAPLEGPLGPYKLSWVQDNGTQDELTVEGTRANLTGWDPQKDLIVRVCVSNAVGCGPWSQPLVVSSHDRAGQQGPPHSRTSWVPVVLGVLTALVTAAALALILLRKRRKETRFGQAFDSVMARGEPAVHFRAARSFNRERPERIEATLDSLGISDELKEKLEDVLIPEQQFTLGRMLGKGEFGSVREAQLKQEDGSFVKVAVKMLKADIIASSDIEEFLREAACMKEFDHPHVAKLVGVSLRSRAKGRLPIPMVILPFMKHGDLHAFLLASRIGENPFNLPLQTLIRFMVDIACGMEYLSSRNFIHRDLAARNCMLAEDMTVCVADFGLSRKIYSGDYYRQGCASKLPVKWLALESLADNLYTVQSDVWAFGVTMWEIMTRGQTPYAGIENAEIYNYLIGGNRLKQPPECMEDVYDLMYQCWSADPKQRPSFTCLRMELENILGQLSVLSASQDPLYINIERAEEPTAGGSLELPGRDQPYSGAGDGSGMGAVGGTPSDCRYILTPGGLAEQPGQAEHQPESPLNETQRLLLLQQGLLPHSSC
# Outline: as §1
# [3] = molecular target: phosphor-Axl (Homo sapiens (Human), UniProt P30530); assay: TAM Enzymatic Assay (HTRF), Axl; conditions: recombinant autophosphorylated Axl, 60 min, room temperature
# Chain of phosphor-Axl (P30530 26-894): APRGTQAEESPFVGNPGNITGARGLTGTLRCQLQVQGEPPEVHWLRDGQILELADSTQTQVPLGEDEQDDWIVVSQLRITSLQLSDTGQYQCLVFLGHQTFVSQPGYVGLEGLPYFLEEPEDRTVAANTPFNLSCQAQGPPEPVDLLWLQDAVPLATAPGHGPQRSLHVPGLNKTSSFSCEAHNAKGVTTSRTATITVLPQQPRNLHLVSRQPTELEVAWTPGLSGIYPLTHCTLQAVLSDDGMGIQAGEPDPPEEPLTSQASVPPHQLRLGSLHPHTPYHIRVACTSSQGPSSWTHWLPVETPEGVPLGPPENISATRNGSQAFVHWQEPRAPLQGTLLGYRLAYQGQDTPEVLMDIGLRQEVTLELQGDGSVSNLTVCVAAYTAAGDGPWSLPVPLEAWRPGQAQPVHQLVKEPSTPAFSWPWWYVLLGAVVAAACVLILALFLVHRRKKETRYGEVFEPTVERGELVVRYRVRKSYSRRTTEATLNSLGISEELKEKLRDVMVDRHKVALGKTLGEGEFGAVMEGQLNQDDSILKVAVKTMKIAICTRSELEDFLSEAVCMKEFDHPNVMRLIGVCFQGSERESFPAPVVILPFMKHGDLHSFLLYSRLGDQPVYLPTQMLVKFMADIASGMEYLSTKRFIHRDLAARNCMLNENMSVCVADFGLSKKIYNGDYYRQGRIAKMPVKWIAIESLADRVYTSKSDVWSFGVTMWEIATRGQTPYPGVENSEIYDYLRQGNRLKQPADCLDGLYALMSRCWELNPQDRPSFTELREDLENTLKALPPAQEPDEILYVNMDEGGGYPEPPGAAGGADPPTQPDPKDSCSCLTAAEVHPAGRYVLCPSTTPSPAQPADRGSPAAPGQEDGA
# Chain of c-Mer (Q12866 21-999): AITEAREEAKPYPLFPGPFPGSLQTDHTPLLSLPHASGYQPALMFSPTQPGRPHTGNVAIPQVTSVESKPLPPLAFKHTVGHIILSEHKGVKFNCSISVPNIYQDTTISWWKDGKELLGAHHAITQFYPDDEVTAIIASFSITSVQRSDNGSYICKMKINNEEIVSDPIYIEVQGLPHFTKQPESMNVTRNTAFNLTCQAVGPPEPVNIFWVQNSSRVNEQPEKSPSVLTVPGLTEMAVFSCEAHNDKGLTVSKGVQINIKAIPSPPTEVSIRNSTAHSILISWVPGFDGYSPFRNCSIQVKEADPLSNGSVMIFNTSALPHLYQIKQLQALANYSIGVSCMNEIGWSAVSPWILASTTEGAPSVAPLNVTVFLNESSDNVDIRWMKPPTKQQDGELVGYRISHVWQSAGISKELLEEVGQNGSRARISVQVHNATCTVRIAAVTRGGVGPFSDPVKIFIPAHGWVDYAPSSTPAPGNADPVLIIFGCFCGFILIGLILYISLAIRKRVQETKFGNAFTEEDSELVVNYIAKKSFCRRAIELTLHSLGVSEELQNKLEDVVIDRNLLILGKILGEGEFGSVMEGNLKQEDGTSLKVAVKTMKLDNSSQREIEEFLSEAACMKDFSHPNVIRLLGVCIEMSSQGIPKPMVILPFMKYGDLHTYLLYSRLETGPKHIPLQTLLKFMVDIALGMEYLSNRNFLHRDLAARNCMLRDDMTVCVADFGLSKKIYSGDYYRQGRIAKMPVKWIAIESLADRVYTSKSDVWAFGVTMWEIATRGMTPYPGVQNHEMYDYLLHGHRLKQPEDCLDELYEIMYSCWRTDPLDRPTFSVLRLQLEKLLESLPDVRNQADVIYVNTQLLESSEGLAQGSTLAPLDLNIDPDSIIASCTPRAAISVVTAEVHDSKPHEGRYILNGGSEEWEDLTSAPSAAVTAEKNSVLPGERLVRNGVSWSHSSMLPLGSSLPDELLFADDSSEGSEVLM
smiles,measurement,setting,value
"Cc1c(C(F)F)cc(C(=O)Nc2ccc(-c3cc(C4CCN(C(=O)C(C)C)CC4)n4ncnc(N)c34)cc2)c(=O)n1-c1ccccn1 [Example 127, N-(4-(4-Amino-7-(1-isobutyrylpiperidin-4-yl)pyrrolo[2,1-f][1,2,4]triazin-5-yl)phenyl)-5-(difluoromethyl)-6-methyl-2-oxo-2H-[1,2′-bipyridine]-3-carboxamide]",IC50,[1],≤ 5 nM
same,IC50,[2],> 100 nM
same,IC50,[3],≤ 5 nM
Cc1c(-c2ncccn2)cc(C(=O)Nc2ccc(-c3cc(C4CCN(C)CC4)n4ncnc(N)c34)cc2)c(=O)n1-c1ccccc1 [Example 109],IC50,[1],≤ 5 nM
same,IC50,[2],5 to 10 nM
same,IC50,[3],≤ 5 nM
"Cc1c(-c2ncccn2)cc(C(=O)Nc2ccc(-c3cc(C4CCN(C(=O)C(C)C)CC4)n4ncnc(N)c34)cc2)c(=O)n1-c1ccccc1 [Example 108, N-{4-[4-Amino-7-(1-isobutyrylpiperidin-4-yl)pyrrolo[2,1-f][1,2,4]triazin-5-yl]phenyl}-6-methyl-2-oxo-1-phenyl-5-pyrimidin-2-yl-1,2-dihydropyridine-3-carboxamide]",IC50,[1],≤ 5 nM
same,IC50,[2],10 to 100 nM
same,IC50,[3],≤ 5 nM
CS(=O)(=O)N1CCC(c2cc(-c3ccc(NC(=O)c4cccn(-c5ccc(F)cc5)c4=O)cc3F)c3c(N)ncnn23)CC1 [Example 43],IC50,[1],≤ 5 nM
same,IC50,[2],10 to 100 nM
same,IC50,[3],≤ 5 nM
"CC(C)C(=O)N1CCC(c2cc(-c3ccc(NC(=O)c4cnc(-c5cccnc5)n(-c5ccccc5)c4=O)cc3)c3c(N)ncnn23)CC1 [Example 116, N-{4-[4-Amino-7-(1-isobutyrylpiperidin-4-yl)pyrrolo[2,1-f][1,2,4]triazin-5-yl]phenyl}-6-oxo-1-phenyl-2-pyridin-3-yl-1,6-dihydropyrimidine-5-carboxamide]",IC50,[1],≤ 5 nM
same,IC50,[2],10 to 100 nM
same,IC50,[3],≤ 5 nM
"CC(C)C(=O)N1CCC(c2cc(-c3ccc(NC(=O)c4cn(C(C)C)c(=O)n(-c5ccccn5)c4=O)cc3)c3c(N)ncnn23)CC1 [Example 83, N-(4-(4-Amino-7-(1-isobutyrylpiperidin-4-yl)pyrrolo[1,2-f][1,2,4]triazin-5-yl)phenyl)-1-isopropyl-2,4-dioxo-3-(pyridin-2-yl)-1,2,3,4-tetrahydropyrimidine-5-carboxamide]",IC50,[1],≤ 5 nM
same,IC50,[2],10 to 100 nM
same,IC50,[3],≤ 5 nM
Nc1ncnn2c(C3CCN(CCO)CC3)cc(-c3ccc(NC(=O)c4cccn(-c5ccc(F)cc5)c4=O)cc3F)c12 [Example 55],IC50,[1],≤ 5 nM
same,IC50,[2],5 to 10 nM
same,IC50,[3],≤ 5 nM
"Cc1c(-c2cccc(C#N)c2)c(=O)c(C(=O)Nc2ccc(-c3cc(C4CCN(C(=O)C(C)C)CC4)n4ncnc(N)c34)cc2)cn1C(C)C [Example 99, N-(4-(4-Amino-7-(1-isobutyrylpiperidin-4-yl)pyrrolo[2,1-f][1,2,4]triazin-5-yl)phenyl)-5-(3-cyanophenyl)-1-isopropyl-6-methyl-4-oxo-1,4-dihydropyridine-3-carboxamide]",IC50,[1],≤ 5 nM
same,IC50,[2],10 to 100 nM
same,IC50,[3],≤ 5 nM
"N#C[C@H]1CC[C@@H](c2cc(-c3ccc(NC(=O)c4cccn(-c5ccc(F)cc5)c4=O)cc3)c3c(N)ncnn32)CC1 [Example 29, N-{4-[4-Amino-7-(cis-4-cyanocyclohexyl)pyrrolo[2,1-f][1,2,4]triazin-5-yl]phenyl}-1-(4-fluorophenyl)-2-oxo-1,2-dihydropyridine-3-carboxamide]",IC50,[1],≤ 5 nM
same,IC50,[2],10 to 100 nM
same,IC50,[3],≤ 5 nM
"Cc1c(Cl)cc(C(=O)Nc2ccc(-c3cc(C4CCN(C(=O)C(C)C)CC4)n4ncnc(N)c34)cc2)c(=O)n1-c1cccnc1 [Example 131, N-(4-(4-amino-7-(1-isobutyrylpiperidin-4-yl)pyrrolo[2,1-f][1,2,4]triazin-5-yl)phenyl)-5-chloro-6-methyl-2-oxo-2H-[1,3′-bipyridine]-3-carboxamide]",IC50,[1],≤ 5 nM
same,IC50,[2],> 100 nM
same,IC50,[3],≤ 5 nM
"Nc1ncnn2c(C3CCOCC3)cc(-c3ccc(NC(=O)c4cccn(-c5ccc(F)cc5)c4=O)cc3)c12 [Example 14, N-{4-[4-Amino-7-(tetrahydro-2H-pyran-4-yl)pyrrolo[2,1-f][1,2,4]triazin-5-yl]phenyl}-1-(4-fluorophenyl)-2-oxo-1,2-dihydropyridine-3-carboxamide]",IC50,[1],≤ 5 nM
same,IC50,[2],10 to 100 nM
same,IC50,[3],≤ 5 nM
"COCCN1CCC(c2cc(-c3ccc(NC(=O)c4cccn(-c5ccc(F)cc5)c4=O)cc3)c3c(N)ncnn23)CC1 [Example 49, N-(4-{4-Amino-7-[1-(2-methoxyethyl)piperidin-4-yl]pyrrolo[2,1-f][1,2,4]triazin-5-yl}phenyl)-1-(4-fluorophenyl)-2-oxo-1,2-dihydropyridine-3-carboxamide]",IC50,[1],≤ 5 nM
same,IC50,[2],10 to 100 nM
same,IC50,[3],≤ 5 nM
"Cc1c(Br)cc(C(=O)Nc2ccc(-c3cc(C4CCN(C(=O)C(C)C)CC4)n4ncnc(N)c34)cc2)c(=O)n1-c1ccccn1 [Example 118, N-(4-(4-Amino-7-(1-isobutyrylpiperidin-4-yl)pyrrolo[2,1-f][1,2,4]triazin-5-yl)phenyl)-5-bromo-6-methyl-2-oxo-2H-[1,2′-bipyridine]-3-carboxamide]",IC50,[1],≤ 5 nM
same,IC50,[2],> 100 nM
same,IC50,[3],≤ 5 nM
"CCn1cc(C(=O)Nc2ccc(-c3cc(C4CCN(C(=O)[C@@H](C)O)CC4)n4ncnc(N)c34)cc2)c(=O)n(-c2ccc(F)cc2)c1=O [Example 79, (R)—N-(4-(4-Amino-7-(1-(2-hydroxypropanoyl)piperidin-4-yl)pyrrolo[1,2-f][1,2,4]triazin-5-yl)phenyl)-1-ethyl-3-(4-fluorophenyl)-2,4-dioxo-1,2,3,4-tetrahydropyrimidine-5-carboxamide]",IC50,[1],≤ 5 nM
same,IC50,[2],10 to 100 nM
same,IC50,[3],≤ 5 nM
"CC(C)C(=O)N1CCC(c2cc(-c3ccc(NC(=O)c4cc5c(n(-c6cncc(F)c6)c4=O)CCCC5=O)cc3)c3c(N)ncnn23)CC1 [Example 113, N-(4-(4-Amino-7-(1-isobutyrylpiperidin-4-yl)pyrrolo[1,2-f][1,2,4]triazin-5-yl)phenyl)-1-(5-fluoropyridin-3-yl)-2,5-dioxo-1,2,5,6,7,8-hexahydroquinoline-3-carboxamide]",IC50,[1],≤ 5 nM
same,IC50,[2],10 to 100 nM
same,IC50,[3],≤ 5 nM
"CC(C)C(=O)N1CCC(c2cc(-c3ccc(NC(=O)c4cn(C(C)C)c(=O)n(-c5ccn(C)n5)c4=O)cc3)c3c(N)ncnn23)CC1 [Example 88, N-(4-(4-Amino-7-(1-isobutyrylpiperidin-4-yl)pyrrolo[2,1-f][1,2,4]triazin-5-yl)phenyl)-1-isopropyl-3-(1-methyl-1H-pyrazol-3-yl)-2,4-dioxo-1,2,3,4-tetrahydropyrimidine-5-carboxamide]",IC50,[1],≤ 5 nM
same,IC50,[2],10 to 100 nM
same,IC50,[3],≤ 5 nM
